Data as given in ChEMBL document CHEMBL1201862, “PubChem BioAssay data set” (2004).
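Following 48 hours of exposure in 96-well plates, responses at five concentrations were used to interpolate endpoints linearly. Abbreviation: GI50, concentration required for 50% inhibition of growth.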 Activity calls are given as the source filed them. Rule as the data show it: active = GI50 up to about 1.1 µM and inactive = higher.

Tests used:
Assay in all cases: growth of human tumour cells (NCI), 48 h
U-251 = system: U-251
HT-29 = system: HT-29
A549 = system: A549
KM12 = system: KM12
786-0 = system: 786-0
SN12C = system: SN12C
T47D = system: T47D
OVCAR-3 = system: OVCAR-3
COLO 205 = system: COLO 205
IGROV-1 = system: IGROV-1
OVCAR-8 = system: OVCAR-8
LOX IMVI = system: LOX IMVI
PC-3 = system: PC-3
K562 = system: K562
CAKI-1 = system: CAKI-1
SNB-19 = system: SNB-19
SK-MEL-28 = system: SK-MEL-28
SF-268 = system: SF-268
OVCAR-4 = system: OVCAR-4
SK-MEL-2 = system: SK-MEL-2

Measured: GI50

O=C(O)Cc1cccc2c1OC(c1ccccc1)C(Cl)(C(=O)c1ccccc1)C2=O (stereo not given)
inactive: U-251 17.2 µM | HT-29 16.4 µM | A549 29.4 µM | KM12 18.5 µM | 786-0 12.9 µM | SN12C 10.5 µM | T47D 16.9 µM | OVCAR-3 17.7 µM | COLO 205 > 10 µM | IGROV-1 15.6 µM | OVCAR-8 22.2 µM | LOX IMVI 14.4 µM | PC-3 11.4 µM | K562 5.52 µM | CAKI-1 17.8 µM | SNB-19 40.1 µM | SK-MEL-28 15.6 µM | SF-268 27.9 µM

O=NN1CCCS1(=O)=O
inactive: U-251 > 100 µM | HT-29 > 100 µM | A549 > 100 µM | KM12 > 100 µM | 786-0 > 100 µM | SN12C > 100 µM | OVCAR-4 > 100 µM | T47D > 100 µM | OVCAR-3 > 100 µM | COLO 205 > 100 µM | IGROV-1 > 100 µM | OVCAR-8 > 100 µM | LOX IMVI > 100 µM | PC-3 > 100 µM | K562 > 100 µM | CAKI-1 > 100 µM | SNB-19 > 100 µM | SK-MEL-28 > 100 µM | SF-268 > 100 µM

CC1CN(c2cc3c(cc2F)c(=O)c(C(=O)O)cn3-c2ccc(F)cn2)CC(C)N1 (stereo not given)
inactive: U-251 > 100 µM | HT-29 > 100 µM | A549 > 100 µM | KM12 > 100 µM | 786-0 > 100 µM | SN12C > 100 µM | OVCAR-4 > 100 µM | T47D > 100 µM | OVCAR-3 > 100 µM | COLO 205 > 100 µM | IGROV-1 > 100 µM | OVCAR-8 > 100 µM | LOX IMVI > 100 µM | PC-3 > 100 µM | K562 > 100 µM | CAKI-1 > 100 µM | SNB-19 > 100 µM | SK-MEL-28 > 100 µM | SF-268 > 100 µM

CC(C)(C)OC(=O)NCCc1ccc(N)cc1
inactive: U-251 30.8 µM | HT-29 > 100 µM | A549 > 100 µM | OVCAR-4 > 100 µM | T47D 74.5 µM | OVCAR-3 19.9 µM | COLO 205 > 100 µM | IGROV-1 > 100 µM | OVCAR-8 > 100 µM | LOX IMVI > 100 µM | PC-3 > 100 µM | K562 66.5 µM | SNB-19 > 100 µM | SK-MEL-28 > 100 µM | SF-268 > 100 µM

COC1=CC(=O)c2c(O)ccc(O)c2C1=O
inactive: U-251 13.1 µM | HT-29 1.72 µM | A549 1.98 µM | KM12 6.93 µM | 786-0 14.6 µM | SN12C 2.65 µM | OVCAR-4 13.6 µM | T47D 18.1 µM | OVCAR-3 2.18 µM | COLO 205 1.5 µM | IGROV-1 18.1 µM | OVCAR-8 21.4 µM | PC-3 18.5 µM | K562 6.68 µM | SNB-19 4.75 µM | SK-MEL-28 1.92 µM | SF-268 7.26 µM

C=C(C)COC1CCCCO1 (stereo not given)
inactive: U-251 > 100 µM | HT-29 > 100 µM | A549 > 100 µM | KM12 > 100 µM | 786-0 > 100 µM | SN12C > 100 µM | T47D > 100 µM | OVCAR-3 > 100 µM | COLO 205 > 100 µM | IGROV-1 > 100 µM | OVCAR-8 > 100 µM | LOX IMVI > 100 µM | PC-3 > 100 µM | K562 41.6 µM | CAKI-1 > 100 µM | SNB-19 > 100 µM | SK-MEL-28 > 100 µM | SK-MEL-2 > 100 µM | SF-268 > 100 µM

Nc1ccc(S(=O)(=O)C23CC4CC(CC(C4)C2)C3)cc1
inactive: U-251 > 100 µM | HT-29 > 100 µM | A549 > 100 µM | KM12 > 100 µM | 786-0 > 100 µM | SN12C > 100 µM | T47D 34.1 µM | OVCAR-3 77.8 µM | COLO 205 74.1 µM | IGROV-1 > 100 µM | OVCAR-8 > 100 µM | LOX IMVI 70.8 µM | PC-3 51.5 µM | K562 89.5 µM | CAKI-1 > 100 µM | SNB-19 > 100 µM | SK-MEL-28 > 100 µM | SK-MEL-2 > 100 µM | SF-268 > 100 µM

CC(C)(O)/C1=C/C=C/CCCCCCCCCC1
inactive: U-251 > 100 µM | HT-29 > 100 µM | KM12 > 100 µM | SN12C > 100 µM | T47D > 100 µM | OVCAR-3 > 100 µM | COLO 205 > 100 µM | IGROV-1 > 100 µM | OVCAR-8 > 100 µM | LOX IMVI > 100 µM | PC-3 87.1 µM | K562 37.8 µM | CAKI-1 > 100 µM | SNB-19 > 100 µM | SK-MEL-28 > 100 µM | SK-MEL-2 > 100 µM | SF-268 > 100 µM

Sc1nc(S)nc(Oc2ccc(Cl)c(Cl)c2)n1
inactive: U-251 44.8 µM | HT-29 49.5 µM | A549 22.4 µM | KM12 14.6 µM | 786-0 > 61.2 µM | SN12C 37.9 µM | OVCAR-4 41.1 µM | T47D 24.4 µM | OVCAR-3 29.6 µM | COLO 205 > 42.3 µM | IGROV-1 > 56.1 µM | OVCAR-8 32.5 µM | LOX IMVI 18.1 µM | K562 16.5 µM | CAKI-1 46.3 µM | SNB-19 > 65.2 µM | SK-MEL-28 > 54 µM | SF-268 > 52.4 µM

CSc1nc(C)c(CCOC(C)=O)c(Cl)n1
inactive: U-251 > 100 µM | HT-29 > 100 µM | A549 > 100 µM | KM12 > 100 µM | 786-0 > 100 µM | SN12C > 100 µM | OVCAR-4 > 100 µM | T47D > 100 µM | OVCAR-3 > 100 µM | COLO 205 > 100 µM | IGROV-1 > 100 µM | OVCAR-8 > 100 µM | LOX IMVI > 100 µM | PC-3 > 100 µM | K562 > 100 µM | CAKI-1 > 100 µM | SNB-19 > 100 µM | SK-MEL-28 > 100 µM | SF-268 > 100 µM

COc1cccc(C2c3cc4c(cc3OC(C)(O)C2C)OCO4)c1O (stereo not given)
inactive: U-251 3.83 µM | HT-29 3.88 µM | A549 4.57 µM | KM12 3.33 µM | 786-0 4.44 µM | SN12C 5.27 µM | OVCAR-4 11.6 µM | T47D 3.82 µM | OVCAR-3 2.81 µM | COLO 205 2.19 µM | IGROV-1 5.2 µM | OVCAR-8 4.94 µM | LOX IMVI 5.12 µM | PC-3 3.37 µM | K562 3.87 µM | SNB-19 5.2 µM | SK-MEL-28 10.5 µM | SK-MEL-2 9.89 µM | SF-268 8.79 µM

COc1ccccc1Nc1nc(NNC(=O)Cc2ccccc2)nc(NNC(=O)c2ccncc2)n1
inactive: U-251 > 10 µM | HT-29 > 10 µM | A549 > 10 µM | KM12 > 10 µM | 786-0 > 10 µM | SN12C > 10 µM | OVCAR-4 > 10 µM | T47D > 10 µM | COLO 205 > 10 µM | IGROV-1 > 10 µM | OVCAR-8 > 10 µM | LOX IMVI > 10 µM | K562 > 10 µM | CAKI-1 > 10 µM | SK-MEL-28 > 10 µM | SF-268 > 10 µM

CC(=O)OC(OC(C)=O)c1ccc2ccc3cccc4ccc1c2c34
inactive: U-251 14.3 µM | HT-29 18 µM | A549 > 100 µM | KM12 9.77 µM | 786-0 36.1 µM | SN12C 26.7 µM | T47D 22.9 µM | OVCAR-3 26.7 µM | COLO 205 25.1 µM | IGROV-1 21.7 µM | OVCAR-8 12.8 µM | LOX IMVI 16 µM | PC-3 28.6 µM | K562 38.7 µM | CAKI-1 9.04 µM | SNB-19 19.5 µM | SF-268 28 µM

COc1ccc(/C=C2/SC(c3ccc(Cl)cc3)N(NC(=O)CCCCCCCCC(=O)NN3C(=O)/C(=C\c4ccc(OC)c(OC)c4)SC3c3ccc(Cl)cc3)C2=O)cc1OC (stereo not given)
inactive: U-251 > 100 µM | HT-29 > 100 µM | A549 64.3 µM | KM12 55.3 µM | 786-0 24.4 µM | SN12C > 100 µM | OVCAR-4 > 100 µM | T47D > 100 µM | OVCAR-3 60 µM | COLO 205 > 100 µM | IGROV-1 12.9 µM | OVCAR-8 52.8 µM | PC-3 54.1 µM | K562 78.3 µM | CAKI-1 47.1 µM | SNB-19 50.2 µM | SK-MEL-28 83 µM | SK-MEL-2 78 µM | SF-268 50 µM

CC[C@@H](C)[C@H](NC(=O)[C@H](Cc1ccccc1)NCC(F)(F)F)C(=O)OC(C)(C)C
inactive: U-251 > 100 µM | HT-29 > 100 µM | A549 > 100 µM | KM12 > 100 µM | 786-0 > 100 µM | SN12C > 100 µM | OVCAR-4 82.2 µM | T47D 25.6 µM | OVCAR-3 89.9 µM | COLO 205 > 100 µM | IGROV-1 > 100 µM | OVCAR-8 > 100 µM | LOX IMVI > 100 µM | PC-3 91.6 µM | K562 > 100 µM | CAKI-1 > 100 µM | SNB-19 > 100 µM | SK-MEL-28 > 100 µM | SF-268 > 100 µM
